Patent US6555547B1, “Method for treating a patient with neoplasia by treatment with a vinca alkaloid derivative” (Cell Pathways, Inc., priority 2000, dated 2003)
Where two headings read alike, the source gives them in different places. Each block holds one molecule with its values, some of them ahead of it.

Key:
[1] = target: T1, PDE Peak A (PDE5) from SW480 cells (Homo sapiens, UniProt O76074); assay: Inhibition of cGMP hydrolysis by PDE Peak A from SW480; format: biochemical
T1 construct: endogenous in cells; host or cells: SW480 colon cancer cells; DEAE-Trisacryl M fraction of the 105,000 g supernatant

[2] = system: cGMP and cAMP in HT-29 cells; assay: Cyclic nucleotide levels in HT-29 cells by radioimmunoassay; format: cell-based, human; conditions: HT-29 cells treated 30 minutes
HT-29 cells [3] = assay: Growth inhibition assay, SRB; format: cell-based, human
[4] = system: premalignant lesions in mouse mammary gland organ culture; assay: Mammary gland organ culture model
Description: Test compounds identified by the above methods can be tested for antineoplastic activity by their ability to inhibit the incidence of pre-neoplastic lesions in a mammary gland organ culture system. This mouse mammary gland organ culture technique has been successfully used by other investigators to study the effects of known antineoplastic agents such as certain NSAIDs, retinoids, tamoxifen, selenium, and certain natural products, and is useful for validation of the screening method of the present invention.
For example, female BALB/c mice can be treated with a combination of estradiol and progesterone daily, in order to prime the glands to be responsive to hormones in vitro. The animals are sacrificed, and thoracic mammary glands are excised aseptically and incubated for ten days in growth media supplemented with insulin, prolactin, hydrocortisone, and aldosterone. DMBA (7,12-dimethylbenz(a)anthracene) is added to medium to induce the formation of premalignant lesions. […]
The extent of the area occupied by the mammary lesions can be quantitated by projecting an image of the gland onto a digitation pad. […] The space covered by each of the non-regressed structures is also outlined on the digitization pad and quantitated by the computer. […]

[5] = target: T2, cGMP binding sites of GST-cGB-PDE5 fusion protein (Homo sapiens, UniProt O76074); assay: cGMP binding assay; conditions: for Competition with cGMP for binding of GST-cGB-PDE5 at high concentration: 100 μM, cGMP 2 μM
T2 construct: made in house; host or cells: E. coli BL21 (DE3)

HT-29 cells [6] = assay: Apoptosis and necrosis, morphological (acridine orange/ethidium bromide); format: cell-based, human; conditions: HT-29, treated 6 days
Description: Following treatment with a compound, cultures can be assayed for apoptosis and necrosis by florescent microscopy following labeling with acridine orange and ethidium bromide. The method for measuring apoptotic cell number has previously been described by Duke & Cohen, “Morphological And Biochemical Assays Of Apoptosis,” Current Protocols In Immunology, Coligan et al., eds., 3.17.1-3.17.16 (1992), which is incorporated herein by reference.
For example, floating and attached cells can be collected by trypsinization and washed three times in PBS. Aliquots of cells can be centrifuged. The pellet can then be re-suspended in media and a dye mixture containing acridine orange and ethidium bromide prepared in PBS and mixed gently. The mixture can then be placed on a microscope slide and examined for morphological features of apoptosis.
Reference compounds and test compounds were analyzed for their novel PDE inhibitory activity in accordance with the protocols for the assay, supra. […] Apoptotic and necrotic cell death was determined previously (Duke and Cohen, In: Current Protocols in Immunology, 3.17.1-3.17.16, New York, John Wiley and Sons, 1992). […]
The apoptosis inducing activity for a series of phosphodiesterase inhibitors was determined. […] Apoptosis and necrosis were determined morphologically after acridine orange and ethidium bromide labeling in accordance with the assay described, supra.

[7] = target: T3, novel cGMP-specific PDE Peak B (Section IIB) from SW480 cells (Homo sapiens, UniProt O00408); assay: Inhibition of cGMP hydrolysis by novel PDE Peak B from SW480; format: biochemical
T3 construct: IC50 Peak B (μM); native enzyme

[8] = system: novel cGMP-specific PDE Peak B (Section IIB) from SW480 cells; assay: as above; format: biochemical, human
[9] = system: Calu-6 adenocarcinoma cell line; assay: Cell growth, alone and in combination with vinca alkaloid; format: cell-based, human; conditions: Calu-6, 1-hour exposure, 0.01 mcg/ml
Description: Exisulind and Compound I were analyzed using two human lung cancer cell lines; H460, a large cell carcinoma with a doubling time of 16 hours, and Calu-6, an adenocarcinoma with a doubling time of 21 hours. Exisulind and Compound I were analyzed alone and in combination with the vinca alkaloid, Navelbine™ vinorelbine. The cytotoxic agents were administered for 1 hour, while exisulind and Compound I were administered for either 1 hour or given as a continuous exposure.
Cells were plated on day 0 and allowed to attach. On day 1, the cells were exposed to one of the cytotoxic agents dissolved in media pre-warmed to 37° C. and incubated at 37° C. for 1 hour. The cells were then washed twice and re-fed pre-warned media with or without either exisulind or Compound I and incubated for one hour at 37° C. After the one-hour incubation, the cells were washed twice, re-fed, and returned to the incubator; the continuous exposure cultures were not washed and re-fed. Appropriate controls were included for each condition. […] All data points were done in triplicate and the mean graphed as a percent of control growth.
Exisulind and Compound I were first dissolved in DMSO and brought to the desired concentrations by slowly adding warm media to the drug-DMSO solution to prevent precipitation.

T3 sequence (O00408 whole entry): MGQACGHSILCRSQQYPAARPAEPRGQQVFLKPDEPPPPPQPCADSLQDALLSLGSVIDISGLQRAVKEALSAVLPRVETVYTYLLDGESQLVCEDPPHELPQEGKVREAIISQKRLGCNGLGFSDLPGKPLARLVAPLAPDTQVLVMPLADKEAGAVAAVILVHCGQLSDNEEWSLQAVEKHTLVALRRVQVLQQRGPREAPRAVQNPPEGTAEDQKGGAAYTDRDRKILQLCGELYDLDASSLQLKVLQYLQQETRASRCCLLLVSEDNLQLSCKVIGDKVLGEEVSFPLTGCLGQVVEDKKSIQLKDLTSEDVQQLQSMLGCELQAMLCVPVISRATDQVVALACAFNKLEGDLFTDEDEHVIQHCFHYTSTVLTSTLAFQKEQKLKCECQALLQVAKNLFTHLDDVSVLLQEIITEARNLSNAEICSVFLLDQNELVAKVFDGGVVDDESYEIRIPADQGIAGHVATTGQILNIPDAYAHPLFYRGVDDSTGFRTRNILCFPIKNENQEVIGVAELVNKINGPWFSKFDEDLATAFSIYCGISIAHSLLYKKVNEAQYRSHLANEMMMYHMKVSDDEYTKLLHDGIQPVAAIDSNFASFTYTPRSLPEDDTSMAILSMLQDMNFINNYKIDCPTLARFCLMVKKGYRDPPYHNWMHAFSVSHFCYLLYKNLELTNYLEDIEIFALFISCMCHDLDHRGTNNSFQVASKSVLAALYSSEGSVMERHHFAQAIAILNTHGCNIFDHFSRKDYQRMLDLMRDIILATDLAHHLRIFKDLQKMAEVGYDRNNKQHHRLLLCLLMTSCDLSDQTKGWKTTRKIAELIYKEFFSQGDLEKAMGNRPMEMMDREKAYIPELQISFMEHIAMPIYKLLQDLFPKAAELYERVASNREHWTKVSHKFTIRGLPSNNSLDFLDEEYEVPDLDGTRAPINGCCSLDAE

Molecule: 5-fluoro-2-methyl-1-(p-methylsulfinylbenzylidene)-3-indenylacetic acid [Sulindac sulfide]
- Competitive (with cGMP) binding/inhibition, Peak A [1]: competitively inhibited both Peaks A and B phosphodiesterases at the same potency
- Increase in levels of cGMP [2]: greater than 50%
- Levels of cAMP [2]: unaffected
- Growth inhibition and apoptosis time course (HT-29 cells [3]; HT-29, 120 μM, viable cells by trypan blue, apoptosis morphological): capable of inhibiting tumor cell growth, and that the effect is accompanied by an increase in apoptosis
- Inhibition of premalignant lesions in mammary gland organ culture [4]: inactive
- Competition with cGMP for binding of GST-cGB-PDE5 ([5]; 3H-cGMP 2 μM): do not bind to the cGMP binding sites of PDE5

- Competition with cGMP for binding of GST-cGB-PDE5 ([5]; 3H-cGMP 2 μM): did not compete with cGMP in binding
Molecule: CCCCOC1C2OP(=O)(O)OCC2OC1n1cnc2c(N)ncnc21 (stereo not shown) [2′-O-butyl-cAMP]

- Competition with cGMP for binding of GST-cGB-PDE5 ([5]; 3H-cGMP 2 μM): did not compete with cGMP in binding
Molecule: CCCCOC1C2OP(=O)(O)OCC2OC1n1cnc2c(=O)[nH]c(N)nc21 (stereo not shown) [2′-O-butyl-cGMP]

- IC50 (HT-29 cells [3]; HT-29, 6 days, SRB assay): > 200 µM
Molecule: COCc1nc2c([nH]1)c(=O)n(C)c(=O)n2CC(C)C [8-methoxy-IBMX]
- % Apoptosis (HT-29 cells [6]): 2%
- % Necrosis (HT-29 cells [6]): 1%

- Competition with cGMP for binding of GST-cGB-PDE5 at high concentration [5]: can partially compete with cGMP
Molecule: Nc1nc2c(nc(Br)n2[C@@H]2O[C@@H]3COP(=O)(O)O[C@H]3[C@H]2O)c(=O)[nH]1 [Compound 8-bromo-cGMP, 8-bromo-cGMP]

Molecule: COc1cc(C=C2C(C)=C(CC(=O)O)c3cc(F)ccc32)cc(OC)c1OC [Compound B, (Z)-5-Fluoro-2-methyl-1-(3,4,5-trimethoxybenzylidene)-3-acetic acid]
- Competition with cGMP for binding of GST-cGB-PDE5 ([5]; 3H-cGMP 2 μM): do not bind to the cGMP binding sites of PDE5

- IC50 [7]: 0.37 µM
- Ratio (IC50 PeakA/Peak B) [8]: 1.0
Molecule: COc1cc(/C=C2/C(C)=C(CC(=O)NCc3ccccc3)c3cc(F)ccc32)cc(OC)c1OC [Compound E, (Z)-5-Fluoro-2-methyl-1-(3,4,5-trimethoxybenzylidene)-3-indenylacetamide, N-benzyl]
- Competitive (with cGMP) binding/inhibition, Peak A [1]: does competitively (with cGMP) bind to PDE 5 (i.e., Peak A)
- Competitive (with cGMP) binding/inhibition, Peak B [7]: also competitively (with cGMP) binds to PDE Peak B
- Competition with cGMP for binding of GST-cGB-PDE5 ([5]; 3H-cGMP 2 μM): do not bind to the cGMP binding sites of PDE5

Molecule: Nc1ncnc2c1ncn2[C@@H]1O[C@@H]2COP(=O)(O)O[C@H]2[C@H]1O [Cyclic AMP]
- Competition with cGMP for binding of GST-cGB-PDE5 [5]: did not compete with cGMP in binding

- Competition with cGMP for binding of GST-cGB-PDE5 at high concentration [5]: can partially compete with cGMP
Molecule: O=c1[nH]cnc2c1ncn2[C@@H]1O[C@@H]2COP(=O)(O)O[C@H]2[C@H]1O [Cyclic IMP]

Molecule: CC1(C)C(=O)Nc2ccc(C3=NNC(=O)CC3)cc21 [Indolidan]
- IC50 [7]: > 100 µM
- Ratio (IC50 PeakA/Peak B) [8]: <0.31

Molecule: COc1ccc(C2CNC(=O)C2)cc1OC1CCCC1 (stereo not shown) [Rolipram]
- IC50 [7]: > 100 µM
- Levels of cAMP [2]: increased cAMP

Molecule: CCCc1nn(C)c2c(=O)[nH]c(-c3cc(S(=O)(=O)N4CCN(C)CC4)ccc3OCC)nc12 [Sildenafil, sildenafil]
- Inhibition of Peak A activity [1]: inhibited activity of Peak A

Molecule: CCOC(=O)C1=C[C@]2(CC)CCCN3CCc4c(n1c1ccccc41)[C@@H]32 [Vinpocetine]
- IC50 [7]: > 100 µM

Molecule: CCCOc1ccccc1-c1nc2nn[nH]c2c(=O)[nH]1 [Zaprinast, zaprinast]
- Competition with cGMP for binding of GST-cGB-PDE5 ([5]; 3H-cGMP 2 μM): do not bind to the cGMP binding sites of PDE5

- Competition with cGMP for binding of GST-cGB-PDE5 ([5]; 3H-cGMP 2 μM): did not compete with cGMP in binding
Molecule: Nc1ccn([C@@H]2O[C@@H]3COP(=O)(O)O[C@H]3[C@H]2O)c(=O)n1 [cCMP, cyclic CMP]

- Competition with cGMP for binding of GST-cGB-PDE5 ([5]; 3H-cGMP 2 μM): did not compete with cGMP in binding
Molecule: O=c1ccn([C@@H]2O[C@@H]3COP(=O)(O)O[C@H]3[C@H]2O)c(=O)[nH]1 [cUMP, cyclic UMP]

Molecule: CCC1=C[C@@H]2CN(C1)Cc1c([nH]c3ccccc13)[C@@](C(=O)OC)(c1cc3c(cc1OC)N(C)[C@H]1[C@@](O)(C(=O)OC)[C@H](OC(C)=O)[C@]4(CC)C=CCN5CC[C@]31[C@@H]54)C2 [vinca alkaloid, vinorelbine]
- % of control growth [9]: 52%
- activity at 0.01 µg/mL ([9]; Homo sapiens, Calu-6, 1 h, read-out: % of control growth): 56%
